Measured values taken from patent US5847092A (Zambon Group S.p.A., priority 1994, dated 1998).
≈ marks a conversion by molar mass, not a printed value. Read-outs that look alike come from different tables or passages of the source.

How the values were obtained:
[1] = system: Streptococcus pyogenes C 203; assay: In vivo antibacterial activity, experimental pulmonary infection in mouse; details: Streptococcus pyogenes, C203, ip, 240 h, intraperitoneal single dose, read-out: average protecting dose PD50
Procedure: The in vivo antibacterial activity of the compounds of formula (I), expressed as average protecting dose PD50 (mg/Kg), was evaluated by means of experimental pulmonary infection induced in mouse by Streptococcus pyogenes (example 23).
b) In vivo antibacterial activity
The therapeutical effectiveness, expressed as average protecting dose (PD50), of the considered compounds of formula (I) was evaluated by experimental pulmonary infection induced in mouse by Streptococcus pyogenesC 203.
Charles River albin mice (strain CD 1), of body weight comprised between 23-35 g, stabulated in groups of 6 for cage and normo-feeded with standard diet and water ad libitum were used. A suspension of S. pyogenes C 203 (corresponding about to 10^8 UFC) in tryptose broth (0.05 ml) was intranasally administered to each mouse anesthesized with a mixture of ethyl ether and chloroform.
The compounds under examination were intraperitoneally administered as a single dose, in 0.2% Tween suspension, 24 hours before or 1 hour after the infection.
Mice mortality observation was prolonged up to 10 days from the infection.
PD50 calculation, expressed as (mg/Kg), was carried out through the analysis of probit.
In vivo antibacterial activity, expressed as average protecting dose PD50 (mg/Kg), 24 hours before and 1 hour after the experimental pulmonary infection induced in mouse by Streptococcus pyogenes C 203, of the compounds 4, 10, 16-19, 21, 23, 26-27, 29-30, 33-35 and 38 and of the reference compounds Roxithromycin and Clarithromycin.

[2] = system: Klebsiella pneumoniae ZC 2; assay: In vitro antibacterial activity, MIC, broth microdilution; format: cell-based; details: K. pneumoniae ZC 2, MHB, 37° C., 18 hours; for MIC: Klebsiella pneumoniae, ZC2, read-out: minimum inhibiting concentration MIC
Procedure: (§1) a) In vitro antibacterial activity The determination of the minimum inhibiting concentrations (MIC), with respect to Gram-positive and Gram-negative bacteria was carried out through the micromethod of gradual broth dilution in double series [National Committee for Clinical Laboratory Standards, 1990; Methods for dilution antimicrobial susceptibility tests for bacteria that grow aerobically; Approved standards […], Villanova, Pa.], by using Mueller Hinton Broth (MHB) as a culture medium. In the case of […] bacteria, horse serum at 5% (Streptococcus pneumoniae and Streptococcus pyogenes) was added to the medium. Roxithromycin and Clarithromycin [The Merck Index, XI Ed., No. 8253 and 2340, respectively] were used as reference macrolides. MIC, expressed as (μg/ml), were determined after incubation of the microplates at 37° C. for 18 hours, evaluating the lowest antibiotic concentration enabling the inhibition of bacterial development.

[3] = system: Staphylococcus aureus PV 14; assay: as above; format: cell-based; details: S. aureus PV 14, MHB, 37° C., 18 hours; for MIC: Staphylococcus aureus, PV14, read-out: minimum inhibiting concentration MIC
Procedure: as §1

[4] = system: Streptococcus pyogenes C 203; assay: as above; format: cell-based; details: S. pyogenes C 203, MHB + 5% horse serum, 37° C., 18 hours; for MIC: Streptococcus pyogenes, C203, read-out: minimum inhibiting concentration MIC
Procedure: as §1

[5] = system: Streptococcus pneumoniae BS 3; assay: as above; format: cell-based; details: S. pneumoniae BS 3, MHB + 5% horse serum, 37° C., 18 hours; for MIC: Streptococcus pneumoniae, BS3, read-out: minimum inhibiting concentration MIC
Procedure: as §1

[6] = system: Escherichia coli ATCC 25922; assay: as above; format: cell-based; details: E. coli ATCC 25922, MHB, 37° C., 18 hours; for MIC: Escherichia coli, ATCC25922, read-out: minimum inhibiting concentration MIC
Procedure: as §1

[7] = system: Streptococcus pneumoniae BS 4; assay: as above; format: cell-based; details: S. pneumoniae BS 4, MHB + 5% horse serum, 37° C., 18 hours; for MIC: Streptococcus pneumoniae, BS4, read-out: minimum inhibiting concentration MIC
Procedure: as §1

[8] = system: Streptococcus pyogenes A 26; assay: as above; format: cell-based; details: S. pyogenes A 26, MHB + 5% horse serum, 37° C., 18 hours; for MIC: Streptococcus pyogenes, A26, read-out: minimum inhibiting concentration MIC
Procedure: as §1

[9] = system: Enterococcus faecalis ATCC 29212; assay: as above; format: cell-based; details: E. faecalis ATCC 29212, MHB, 37° C., 18 hours; for MIC: Enterococcus faecalis, ATCC29212, read-out: minimum inhibiting concentration MIC
Procedure: as §1

CC[C@H]1OC(=O)[C@H](C)[C@@H](O[C@H]2C[C@@](C)(OC)[C@@H](O)[C@H](C)O2)[C@H](C)[C@@H](O[C@@H]2O[C@H](C)C[C@H](N(C)C)[C@H]2O)[C@](C)(O)C[C@@H](C)/C(=N\OCCNCCCCCCNCc2ccc3c(c2)OCO3)[C@H](C)[C@@H](O)[C@]1(C)O [Compound 18, Erythromycin A (E)-9-[0-[2-[6-[(3,4-methylenedioxyphenyl)methylamino]hexylamino]ethyl]oxime]]
ED50 ([1]; 1 hour after infection): 1.32 mg/kg
ED50 ([1]; 24 hours before infection): 2.23 mg/kg
MIC [2]: 16 µg/mL (≈ 15.6 µM)
MIC [3]: 0.25 µg/mL (≈ 0.244 µM)
MIC [4]: 0.0078 µg/mL
MIC [5]: 0.0156 µg/mL
MIC [6]: 2 µg/mL (≈ 1.95 µM)
MIC [7]: 0.0312 µg/mL
MIC [8]: 0.0312 µg/mL
MIC [9]: 2 µg/mL (≈ 1.95 µM)

CC[C@H]1OC(=O)[C@H](C)[C@@H](O[C@H]2C[C@@](C)(OC)[C@@H](O)[C@H](C)O2)[C@H](C)[C@@H](O[C@@H]2O[C@H](C)C[C@H](N(C)C)[C@H]2O)[C@](C)(O)C[C@@H](C)/C(=N\OCCNCCCCCCNCc2cccc(C(F)(F)F)c2)[C@H](C)[C@@H](O)[C@]1(C)O [Compound 19, Erythromycin A (E)-9-[0-[2-[6-[(3-trifluoromethylphenyl)methylamino]hexylamino]ethyl]oxime]]
ED50 ([1]; 1 hour after infection): 1.95 mg/kg
ED50 ([1]; 24 hours before infection): 4.84 mg/kg
MIC [2]: 8 µg/mL (≈ 7.62 µM)
MIC [3]: 1 µg/mL (≈ 0.953 µM)
MIC [4]: 0.0156 µg/mL
MIC [5]: 0.0156 µg/mL
MIC [6]: 2 µg/mL (≈ 1.91 µM)
MIC [7]: 0.0078 µg/mL
MIC [8]: 0.0156 µg/mL
MIC [9]: 2 µg/mL (≈ 1.91 µM)

CC[C@H]1OC(=O)[C@H](C)[C@@H](O[C@H]2C[C@@](C)(OC)[C@@H](O)[C@H](C)O2)[C@H](C)[C@@H](O[C@@H]2O[C@H](C)C[C@H](N(C)C)[C@H]2O)[C@](C)(O)C[C@@H](C)/C(=N\OCCNCCCCCCNCc2ccccc2C(F)(F)F)[C@H](C)[C@@H](O)[C@]1(C)O [Compound 21, Erythromycin A (E)-9-[0-[2-[6-[(2-trifluoromethylphenyl)methylamino]hexylamino]ethyl]oxime]]
ED50 ([1]; 1 hour after infection): 0.82 mg/kg
ED50 ([1]; 24 hours before infection): 5.95 mg/kg
MIC [2]: 16 µg/mL (≈ 15.2 µM)
MIC [3]: 1 µg/mL (≈ 0.953 µM)
MIC [4]: 0.0156 µg/mL
MIC [5]: 0.0078 µg/mL
MIC [6]: 4 µg/mL (≈ 3.81 µM)
MIC [7]: 0.0039 µg/mL
MIC [8]: 0.0078 µg/mL
MIC [9]: 2 µg/mL (≈ 1.91 µM)

CC[C@H]1OC(=O)[C@H](C)[C@@H](O[C@H]2C[C@@](C)(OC)[C@@H](O)[C@H](C)O2)[C@H](C)[C@@H](O[C@@H]2O[C@H](C)C[C@H](N(C)C)[C@H]2O)[C@](C)(O)C[C@@H](C)/C(=N\OCCNCCCCCCNCc2ccc([N+](=O)[O-])c(O)c2)[C@H](C)[C@@H](O)[C@]1(C)O [Compound 37, Erythromycin A (E)-9-[0-[2-[6-[(3-hydroxy-4-nitrophenyl)methylamino]hexylamino]ethyl]oxime]]
MIC [2]: 16 µg/mL (≈ 15.4 µM)
MIC [3]: 0.5 µg/mL (≈ 0.48 µM)
MIC [4]: 0.0039 µg/mL
MIC [5]: 0.0312 µg/mL
MIC [6]: 4 µg/mL (≈ 3.84 µM)
MIC [7]: 0.0312 µg/mL
MIC [8]: 0.0312 µg/mL
MIC [9]: 8 µg/mL (≈ 7.68 µM)

Erythromycin A (E)-9-[0-[2-[N-ethyl-6-[N'-ethyl-N'-(2-phenylethyl)amino]hexylamino]hexyl])oxime] [Compound 2]
minimum inhibiting concentration MIC [2]: 64 µg/mL
minimum inhibiting concentration MIC [3]: 1 µg/mL
minimum inhibiting concentration MIC [4]: 0.0312 µg/mL
minimum inhibiting concentration MIC [5]: 0.0156 µg/mL
minimum inhibiting concentration MIC [6]: 16 µg/mL
minimum inhibiting concentration MIC [7]: 0.0312 µg/mL
minimum inhibiting concentration MIC [8]: 0.0156 µg/mL
minimum inhibiting concentration MIC [9]: 8 µg/mL
